Consider three compounds from article PMC11803819, “Chemical composition, antioxidant activities, and enzyme inhibitory effects of Lespedeza bicolour Turcz. essential oil” (Journal of Enzyme Inhibition and Medicinal Chemistry, 2025).

Broadly, the IC50 is the concentration that gives 50% inhibition.

Assay [1] has as its system acetylcholinesterase (AChE). The following applies: previous studies; cited from earlier work.
A short description of assay [2]: DPPH radical scavenging assay. The following applies: positive control. The procedure:
The experimental procedure was adapted from previous research with minor modifications. The concentrations of Trolox (positive control) and the mother solution of the essential oil EO were 1.0 mg/mL and 20 mg/mL, respectively, in an ethanolic system. 50 μL of the positive control or EO solution was pipetted into a 96‐well microplate and 200 μL of a 2,2-diphenyl-1-picrylhydrazyl (DPPH) solution. The microplate was incubated in the dark at 25 °C for 30 min, and then the absorbance was measured at 517 nm using an Epoch microplate absorbance spectrophotometer (Epoch, Biotech company, Minneapolis, MN, USA). The DPPH radical scavenging capacity (RSC%) was calculated using the Equation (2). […] (2) RSC%=(1−ASample−ASample Blank/AControl)×100% where, ASample is the absorbance of the tested sample at different concentrations, AControl is the absorbance of the control (ethanolic DPPH solution), and ASample Blank is the absorbance of the ethanol sample without DPPH.

Assay [3] can be described thus: ABTS radical scavenging assay. The following applies: positive control. As to the method: The experimental procedure is derived from the previous methods with some modifications[35]^,[36]. A mixture of 7.0 mM 2,2-azinobis(3-ethylbenzothiazoline-6-sulfonate) (ABTS) solution and 2.6 mM potassium persulfate was prepared to generate the ABTS^•+ free radical. The mixture was subsequently stored in the dark at room temperature for 12 h, facilitating the entire generation of the ABTS^•+ free radical. Additionally, ethanolic EO solutions were prepared at 50, 25, 10, 5, 2.5, and 1 mg/mL concentrations. A microplate reader (Epoch, Biotech company, Minneapolis, MN, USA) was utilised to ascertain the absorbance of the solution, delineated as the absorbance at 734 nm six minutes post-initiation of the reaction. For comparison, ethanol was used as the blank and gradient-diluted solvent. Meanwhile, 0.5 mg/mL 6‐hydroxy‐2,5,7,8‐tetramethylchroman‐2‐carboxylic acid (Trolox) was utilised as the positive control. The ABTS radical scavenging capacity (RSC%) was calculated using the Equation (1). (1) RSC%=A0−A/A0×100% where A0 and A are the absorbance of 200 μL diluted ABTS^•+ solution mixed with 50 μL ethanol and 50 μL sample solution, respectively, at 734 nm. IC50 was then calculated. All tests were performed in triplicates.

Assay [4] addresses β-lactamase. The note with it: cited from earlier work.

Converted amounts (≈) assume the structure as drawn.

acetylcholinesterase (AChE), sequence (P22303 32-614, species assumed): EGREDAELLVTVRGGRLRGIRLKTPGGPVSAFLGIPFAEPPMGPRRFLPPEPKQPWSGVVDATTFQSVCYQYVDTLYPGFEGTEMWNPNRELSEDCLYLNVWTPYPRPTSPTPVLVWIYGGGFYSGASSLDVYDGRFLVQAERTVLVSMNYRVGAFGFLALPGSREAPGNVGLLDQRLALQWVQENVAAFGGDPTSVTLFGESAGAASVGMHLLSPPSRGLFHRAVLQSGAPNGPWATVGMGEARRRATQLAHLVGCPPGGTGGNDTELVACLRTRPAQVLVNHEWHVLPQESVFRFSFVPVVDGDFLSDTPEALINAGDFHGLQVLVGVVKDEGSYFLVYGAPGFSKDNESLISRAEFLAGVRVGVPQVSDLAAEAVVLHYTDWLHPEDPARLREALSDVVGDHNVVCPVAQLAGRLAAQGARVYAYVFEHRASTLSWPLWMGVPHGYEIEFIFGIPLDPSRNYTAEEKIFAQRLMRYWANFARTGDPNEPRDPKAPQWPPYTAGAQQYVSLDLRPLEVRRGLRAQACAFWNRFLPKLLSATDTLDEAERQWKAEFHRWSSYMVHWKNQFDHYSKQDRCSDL

`C=C[C@](C)(O)CC[C@@H]1[C@@]2(C)CCCC(C)(C)[C@@H]2CC[C@@]1(C)O` [Sclareol]: the “Inhibition against AChE” value in assay [1] is recorded as “significant inhibition”.

Regarding `Cc1c(C)c2c(c(C)c1O)CCC(C)(C(=O)O)O2` (stereo not shown) [Trolox, 6‐hydroxy‐2,5,7,8‐tetramethylchroman‐2‐carboxylic acid], the “IC50 of DPPH scavenging capacity” value in assay [2] is 9.94 ± 0.20 mg/L. Besides, the “IC50 of ABTS radical scavenging capacity” value in assay [3] stood at 6.15 ± 0.15 mg/L. In the case of `COC(=O)C=Cc1ccccc1` [methyl cinnamate], the IC50 in assay [4] was 11.6 mg/L (≈ 71.5 µM).
